Among the data in article PMC7692993 (Journal for Immunotherapy of Cancer, 2020) are IC50 values, retold here.

Experiment [1] concerns the target T1, CC chemokine receptor 4 (CCR4) (Mus musculus, UniProt P51680).
T1 sequence (P51680 1-360): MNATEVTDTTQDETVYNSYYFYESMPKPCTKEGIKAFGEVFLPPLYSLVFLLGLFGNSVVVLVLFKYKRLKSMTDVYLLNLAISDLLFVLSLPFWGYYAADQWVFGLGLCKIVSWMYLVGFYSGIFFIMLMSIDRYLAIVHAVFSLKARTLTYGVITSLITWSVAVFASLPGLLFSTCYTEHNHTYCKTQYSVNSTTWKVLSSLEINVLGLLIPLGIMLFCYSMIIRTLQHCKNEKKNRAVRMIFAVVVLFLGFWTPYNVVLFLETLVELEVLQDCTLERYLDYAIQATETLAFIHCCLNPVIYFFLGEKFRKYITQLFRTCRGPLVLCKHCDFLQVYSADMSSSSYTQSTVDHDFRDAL
The experiment is described as follows: inhibition of CCL22-driven chemotaxis of mouse iTreg in […] serum. The experiment is classed as cell-based.

Experiment [2] has as its target T2, CC chemokine receptor 4 (CCR4) (Homo sapiens, UniProt P51679).
T2 sequence (P51679 1-360): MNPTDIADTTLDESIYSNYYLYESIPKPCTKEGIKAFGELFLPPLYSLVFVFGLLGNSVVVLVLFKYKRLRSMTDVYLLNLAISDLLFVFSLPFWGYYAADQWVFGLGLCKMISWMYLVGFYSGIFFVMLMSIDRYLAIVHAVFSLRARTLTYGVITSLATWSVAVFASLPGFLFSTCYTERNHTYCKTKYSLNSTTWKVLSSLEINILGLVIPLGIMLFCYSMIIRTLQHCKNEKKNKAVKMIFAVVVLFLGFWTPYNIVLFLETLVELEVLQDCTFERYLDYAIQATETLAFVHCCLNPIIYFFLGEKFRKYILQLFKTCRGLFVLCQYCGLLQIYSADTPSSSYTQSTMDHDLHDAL
The experiment is described as follows: inhibition of CCL22-driven chemotaxis of human iTreg in […] serum. The experiment is classed as cell-based.

Regarding `C[C@H](c1ccc(Cl)cc1Cl)n1nc(C#N)c2ncc(N3CC([C@H]4CCCN(CCO)C4)C3)nc21` [CCR4-351], the half-inhibitory concentration (IC50) in experiment [1] and in experiment [2] was about 40 nM each time.
